Test results reported in US20240409585A1, “MACROCYCLIC IMMUNOMODULATORS” (priority 2021, published 2024).
Numbered stars: 1 amine (or outer) side, 2 acyl side, 3 side chain; on linkers, the order of the positions; unused ones are H or OH. Bridge positions count the residues as written; N and C are the ends. Square brackets hold non-standard residues; d marks the D form. Peptide text beside a SMILES is read from it. * marks the point of attachment. Bip(4'-COOH) = N[C@@H](Cc1ccc(-c2ccc(C(=O)O)cc2)cc1)C(=O)O; Bip(4'-NHAc) = CC(=O)Nc1ccc(-c2ccc(C[C@H](N)C(=O)O)cc2)cc1; X32 = N=C(N)NCc1ccc(C[C@H](N[*:1])C(=O)[*:2])cc1; Phe(3-CF3) = N[C@@H](Cc1cccc(C(F)(F)F)c1)C(=O)O; Ala(morpholin-4-yl) = N[C@@H](CN1CCOCC1)C(=O)O; Phe(4-CONH2) = NC(=O)c1ccc(C[C@H](N)C(=O)O)cc1; Phe(4-COOH) = N[C@@H](Cc1ccc(C(=O)O)cc1)C(=O)O; Bip = N[C@@H](Cc1ccc(-c2ccccc2)cc1)C(=O)O; Abu(3R-NH2) = C[C@@H](N)[C@H](N)C(=O)O; Phe(3-Me) = Cc1cccc(C[C@H](N)C(=O)O)c1; Abu(3S-NH2) = C[C@H](N)[C@H](N)C(=O)O; Phe(2-F) = N[C@@H](Cc1ccccc1F)C(=O)O; Val(3-OH) = CC(C)(O)[C@H](N)C(=O)O; hPhe = N[C@@H](CCc1ccccc1)C(=O)O; 2Pal = N[C@@H](Cc1ccccn1)C(=O)O; Cha = N[C@@H](CC1CCCCC1)C(=O)O; Carboxymethyl = O=C(O)C*; NMeA = CN[C@@H](C)C(=O)O; Orn = NCCC[C@H](N)C(=O)O; Dab = NCC[C@H](N)C(=O)O

target: T1, Alexa fluor-647 labeled human PD-L1-Ig binding to Jurkat cell line over-expressing human PD-1 (Homo sapiens, UniProt Q15116); test: Jurkat-PD-1 Cell Binding High-Content Screening Assay (CBA): Method 3 (Alexa fluor-647 labeled PD-L1-Ig); conditions: Jurkat-PD-1 cells, Alexa fluor-647 labeled PD-L1-Ig 177 nM; head μM; read-out: CBA Method 3 μM
T1 construct: expressed in transfected cells; host or cells: Jurkat
T1 sequence (Q15116 25-288): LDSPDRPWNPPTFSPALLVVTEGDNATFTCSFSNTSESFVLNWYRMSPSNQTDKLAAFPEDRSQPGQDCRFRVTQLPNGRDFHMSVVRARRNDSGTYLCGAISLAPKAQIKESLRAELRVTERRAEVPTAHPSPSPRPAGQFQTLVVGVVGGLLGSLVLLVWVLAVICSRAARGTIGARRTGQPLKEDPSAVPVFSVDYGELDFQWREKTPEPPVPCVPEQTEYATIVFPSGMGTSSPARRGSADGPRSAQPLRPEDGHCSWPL
Outline: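 Jurkat cells over-expressing human PD-1 in RPMI/10% FCS were preincubated 2 h at 37 °C with compound, then exposed 1 h to Alexa fluor-647 labeled human PD-L1-Ig (177 nM final). Cells fixed in 4% paraformaldehyde with Hoechst 33342 and binding quantified by high-content imaging.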

SMILES | IC50
Cc1cccc(C[C@@H]2NC(=O)[C@H](CC(=O)O)NC(=O)[C@H](Cc3ccc(OCC(=O)O)cc3)NC(=O)[C@H](Cc3ccc(CNC(=N)N)cc3)NC(=O)CSC[C@@H](C(=O)N[C@@H](CCN)C(N)=O)NC(=O)[C@H](CCCN)NC(=O)[C@H](C(C)C)NC(=O)[C@H](CC3CCCCC3)NC(=O)[C@H](CCN)NC(=O)[C@@H](CC(C)C)NC(=O)[C@H](C)N(C)C(=O)[C@H](CCC(N)=O)NC(=O)[C@H](Cc3ccc(-c4ccccc4)cc3)NC(=O)[C@H](Cc3ccc(C(=O)O)cc3)NC2=O)c1 [Example 5278] ({CH2CO}-[X32]Y(Carboxymethyl)D[Phe(3-Me)][Phe(4-COOH)][Bip]Q[NMeA][dL][Dab][Cha]V[Orn]C[Dab]-NH2; thioether N-14) | 0.31 µM
CC(C)C[C@H]1NC(=O)[C@H](C)N(C)C(=O)[C@H](CCC(N)=O)NC(=O)[C@H](Cc2ccc(-c3ccccc3)cc2)NC(=O)[C@H](CCc2ccccc2)NC(=O)[C@H](Cc2cccc(C(F)(F)F)c2)NC(=O)[C@H](CC(=O)N[C@@H](CC(=O)O)C(=O)O)NC(=O)[C@H](Cc2ccc(OCC(=O)O)cc2)NC(=O)[C@H](CN2CCOCC2)NC(=O)CSC[C@@H](C(=O)N[C@@H](CCN)C(N)=O)NC(=O)[C@H](CCCN)NC(=O)[C@H](C(C)C)NC(=O)[C@H](CC2CCCCC2)NC(=O)[C@H](CCN)NC1=O [Example 5294] ({CH2CO}-[Ala(morpholin-4-yl)]Y(Carboxymethyl)D(Asp)[Phe(3-CF3)][hPhe][Bip]Q[NMeA][dL][Dab][Cha]V[Orn]C[Dab]-NH2; thioether N-14) | 0.04 µM
Cc1cccc(C[C@@H]2NC(=O)[C@H](CC(=O)O)NC(=O)[C@H](Cc3ccc(-c4ccc(C(=O)O)cc4)cc3)NC(=O)[C@H](CN3CCOCC3)NC(=O)CSC[C@@H](C(=O)N[C@@H](CCN)C(N)=O)NC(=O)[C@H](Cc3cnc[nH]3)NC(=O)[C@H](C(C)(C)O)NC(=O)[C@H](CC3CCCCC3)NC(=O)[C@H](CCN)NC(=O)[C@@H](CC(C)C)NC(=O)[C@H](C)N(C)C(=O)[C@H](Cc3ccc(C(=O)O)cc3)NC(=O)[C@H](Cc3ccc(-c4ccccc4)cc3)NC(=O)[C@H](Cc3ccc(-c4ccc(C(=O)O)cc4)cc3)NC2=O)c1 [Example 5133] ({CH2CO}-[Ala(morpholin-4-yl)][Bip(4'-COOH)]D[Phe(3-Me)][Bip(4'-COOH)][Bip][Phe(4-COOH)][NMeA][dL][Dab][Cha][Val(3-OH)]HC[Dab]-NH2; thioether N-14) | 0.2 µM
CC(C)C[C@H]1NC(=O)[C@H](C)N(C)C(=O)[C@H](CCC(N)=O)NC(=O)[C@H](Cc2ccc(-c3ccccc3)cc2)NC(=O)[C@H](CCc2ccccc2)NC(=O)[C@H](Cc2cccc(C(F)(F)F)c2)NC(=O)[C@H](CC(=O)O)NC(=O)[C@H](Cc2ccc(OCC(=O)O)cc2)NC(=O)[C@H]([C@@H](C)N)NC(=O)CSC[C@@H](C(=O)N[C@@H](CCN)C(N)=O)NC(=O)[C@H](CCC(N)=O)NC(=O)[C@H](C(C)C)NC(=O)[C@H](CC2CCCCC2)NC(=O)[C@H](CCN)NC1=O [Example 5223] ({CH2CO}-[Abu(3R-NH2)]Y(Carboxymethyl)D[Phe(3-CF3)][hPhe][Bip]Q[NMeA][dL][Dab][Cha]VQC[Dab]-NH2; thioether N-14) | 0.05 µM

Next, values leading:

IC50 | SMILES
0.06 µM | Cc1cccc(C[C@@H]2NC(=O)[C@H](CC(=O)O)NC(=O)[C@H](Cc3ccc(OCC(=O)O)cc3)NC(=O)[C@H](Cc3ccccc3F)NC(=O)CSC[C@@H](C(=O)N[C@@H](CCN)C(N)=O)NC(=O)[C@H](CCCN)NC(=O)[C@H](C(C)C)NC(=O)[C@H](CC3CCCCC3)NC(=O)[C@H](CCN)NC(=O)[C@@H](CC(C)C)NC(=O)[C@H](C)N(C)C(=O)[C@H](CCC(N)=O)NC(=O)[C@H](Cc3ccc(-c4ccccc4)cc3)NC(=O)[C@H](Cc3ccc(C(=O)O)cc3)NC2=O)c1 [Example 5293] ({CH2CO}-[Phe(2-F)]Y(Carboxymethyl)D[Phe(3-Me)][Phe(4-COOH)][Bip]Q[NMeA][dL][Dab][Cha]V[Orn]C[Dab]-NH2; thioether N-14)
0.33 µM | Cc1cccc(C[C@@H]2NC(=O)[C@H](CC(=O)O)NC(=O)[C@H](Cc3ccc(OCC(=O)O)cc3)NC(=O)[C@H](Cc3ccccn3)NC(=O)CSC[C@@H](C(=O)N[C@@H](CCN)C(N)=O)NC(=O)[C@H](CCCN)NC(=O)[C@H](C(C)C)NC(=O)[C@H](CC3CCCCC3)NC(=O)[C@H](CCN)NC(=O)[C@@H](CC(C)C)NC(=O)[C@H](C)N(C)C(=O)[C@H](CCC(N)=O)NC(=O)[C@H](Cc3ccc(-c4ccccc4)cc3)NC(=O)[C@H](Cc3ccc(C(=O)O)cc3)NC2=O)c1 [Example 5172] ({CH2CO}-[2Pal]Y(Carboxymethyl)D[Phe(3-Me)][Phe(4-COOH)][Bip]Q[NMeA][dL][Dab][Cha]V[Orn]C[Dab]-NH2; thioether N-14)

same assay, conditions: Jurkat-PD-1 cells, Alexa fluor-647 labeled PD-L1-Ig 177 nM; nM; read-out: CBA Method 3

IC50 | SMILES
0.0088 µM | CC(=O)Nc1ccc(-c2ccc(C[C@@H]3NC(=O)[C@H](Cc4cccc(C(F)(F)F)c4)NC(=O)[C@H](CC(=O)O)NC(=O)[C@H](Cc4ccc(C(N)=O)cc4)NC(=O)[C@H]([C@H](C)N)NC(=O)CSC[C@@H](C(=O)N[C@@H](CCN)C(N)=O)NC(=O)[C@H](CC(N)=O)NC(=O)[C@H](C(C)C)NC(=O)[C@H](CC4CCCCC4)NC(=O)[C@H](CCN)NC(=O)[C@@H](CC(C)C)NC(=O)[C@H](C)N(C)C(=O)[C@H](Cc4ccc(C(N)=O)cc4)NC(=O)[C@H](Cc4ccc(-c5ccccc5)cc4)NC3=O)cc2)cc1 [Example 5110] ({CH2CO}-[Abu(3S-NH2)][Phe(4-CONH2)]D[Phe(3-CF3)][Bip(4'-NHAc)][Bip][Phe(4-CONH2)][NMeA][dL][Dab][Cha]VNC[Dab]-NH2; thioether N-14)
0.008 µM | Cc1cccc(C[C@@H]2NC(=O)[C@H](CC(=O)O)NC(=O)[C@H](Cc3ccc(OCC(=O)O)cc3)NC(=O)[C@H](CC(N)=O)NC(=O)CSC[C@@H](C(=O)N[C@@H](CCN)C(N)=O)NC(=O)[C@H](CCCN)NC(=O)[C@H](C(C)C)NC(=O)[C@H](CC3CCCCC3)NC(=O)[C@H](CCN)NC(=O)[C@@H](CC(C)C)NC(=O)[C@H](C)N(C)C(=O)[C@H](CCC(N)=O)NC(=O)[C@H](Cc3ccc(-c4ccccc4)cc3)NC(=O)[C@H](Cc3ccc(C(=O)O)cc3)NC2=O)c1 [Example 5187] ({CH2CO}-NY(Carboxymethyl)D[Phe(3-Me)][Phe(4-COOH)][Bip]Q[NMeA][dL][Dab][Cha]V[Orn]C[Dab]-NH2; thioether N-14)
0.0038 µM | Cc1cccc(C[C@@H]2NC(=O)[C@H](CC(=O)O)NC(=O)[C@H](Cc3ccc(OCC(=O)O)cc3)NC(=O)[C@H](CCCCN)NC(=O)CSC[C@@H](C(=O)N[C@@H](CCN)C(N)=O)NC(=O)[C@H](CCCN)NC(=O)[C@H](C(C)C)NC(=O)[C@H](CC3CCCCC3)NC(=O)[C@H](CCN)NC(=O)[C@@H](CC(C)C)NC(=O)[C@H](C)N(C)C(=O)[C@H](CCC(N)=O)NC(=O)[C@H](Cc3ccc(-c4ccccc4)cc3)NC(=O)[C@H](Cc3ccc(C(=O)O)cc3)NC2=O)c1 [Example 5181] ({CH2CO}-KY(Carboxymethyl)D[Phe(3-Me)][Phe(4-COOH)][Bip]Q[NMeA][dL][Dab][Cha]V[Orn]C[Dab]-NH2; thioether N-14)
